“And” between values parts separate entries of the source, which are not always exact repeats. Identical values can stand only once.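 Assay format: 96-well plates, 48-hour exposure. The concentration for 50% growth inhibition is given as GI50. TGI: concentration producing complete growth inhibition.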
Experiments:
Assay in all cases: NCI tumour cell line growth inhibition, 48 h
[1] = test system: A549 NSCLC
[2] = test system: BT-549 breast
[3] = test system: CAKI-1 renal
[4] = test system: DU-145 prostate
[5] = test system: HOP-92 NSCLC
[6] = test system: MDA-MB-435
[7] = test system: NCI-H460 lung
[8] = test system: NCI-H522 lung
[9] = test system: OVCAR-3 ovarian
[10] = test system: OVCAR-5 ovarian
[11] = test system: SK-MEL-2 melanoma
[12] = test system: SK-MEL-28 melanoma
[13] = test system: SK-OV-3 ovarian
[14] = test system: TK-10 renal
[15] = test system: UO-31 renal

Row | SMILES | TGI [1] | TGI [2] | TGI [3] [µM] | TGI [4] | TGI [5] | TGI [6] | TGI [7] | TGI [8] [µM] | TGI [9] | TGI [10] | TGI [11] [µM] | TGI [12] | TGI [13] | TGI [14] | TGI [15] | GI50 [1] | GI50 [4] | GI50 [10] | GI50 [13] | GI50 [14]
1 | CC1(C)CC(=O)C(CC2C(=O)c3ccccc3C2=O)C(=O)C1C(=O)C(=O)Nc1cccc2ccc(O)cc12 (stereo not given) | > 100 µM | > 100 µM | > 100 | > 100 µM | > 100 µM | > 100 µM | > 100 µM | > 100 | > 100 µM | > 100 µM | > 100 | > 100 µM | > 100 µM | > 100 µM | > 100 µM |  |  |  |  | 
2 | CC(=O)N1N=C(c2ccc3ccccc3c2O)CC1c1ccc(Cl)cc1Cl (stereo not given) | > 100 µM | > 100 µM | > 100 | > 100 µM | > 100 µM | > 100 µM | > 100 µM | > 100 | > 100 µM | > 100 µM | > 100 | > 100 µM | > 100 µM | > 100 µM | > 100 µM |  |  |  |  | 
3 | Cc1ccc(S(=O)(=O)Nn2c(C)cc3ccc(S(=O)(=O)Nc4ccccc4[N+](=O)[O-])cc3c2=O)cc1 | > 100 µM | > 100 µM | > 100 | > 100 µM | > 100 µM | > 100 µM | > 100 µM | > 100 | > 100 µM | > 100 µM | > 100 | > 100 µM | > 100 µM | > 100 µM | > 100 µM |  |  |  |  | 
4 | Nc1ncnc2c1ccn2CC=C(CO)CO | > 100 µM | > 100 µM | > 100 | > 100 µM | > 100 µM | > 100 µM | > 100 µM | > 100 | > 100 µM | > 100 µM | > 100 | > 100 µM | > 100 µM | > 100 µM | > 100 µM |  |  |  |  | 
5 | COc1cc(CC(C)N[C@@H](C)c2ccccc2)cc(OC)c1 (stereo not given in full) | 27.1 µM and > 100 µM | 20.4 µM and > 100 µM | > 100 | 25.2 µM and > 100 µM | 10.8 µM and > 100 µM | 19.6 µM and > 100 µM | 12.1 µM and > 100 µM | > 100 | 21.1 µM and > 100 µM | 26 µM and > 100 µM | > 100 | 11.9 µM and > 100 µM | 25.5 µM and > 100 µM | 24.7 µM and > 100 µM | 13.9 µM and > 100 µM | 13 µM and > 100 µM | 12.6 µM and > 100 µM | 12.9 µM and > 100 µM | 12.9 µM and > 100 µM | 12.2 µM and 53.8 µM
6 | C[C@]12CC[C@H]3[C@@H](CC=C4C[C@@H](O)CC[C@@]43C)[C@@H]1C[C@H](N1CCOCC1)[C@@H]2O | > 100 µM | > 100 µM | > 100 | > 100 µM | > 100 µM | > 100 µM | > 100 µM | > 100 | > 100 µM | > 100 µM | > 100 | > 100 µM | > 100 µM | > 100 µM | > 100 µM |  |  |  |  | 
7 | c1ccc(-c2sc(-c3ccccc3)c3c2C2CCC3C2)cc1 | > 100 µM | > 100 µM | > 100 | > 100 µM | 47.9 µM | > 100 µM | 88.2 µM | 60.5 | > 100 µM | > 100 µM | 39.5 | > 100 µM | > 100 µM | 89.7 µM | 58.3 µM |  |  |  |  | 
8 | O=C1CC(NC2CC(=O)c3c(Br)sc(Br)c32)c2c(Br)sc(Br)c21 (stereo not given) | 38.9 µM | 38.9 µM | 9.72 | 16.5 µM | 21.5 µM | 11.2 µM | 38.2 µM | 3.69 | > 100 µM | 41.4 µM | 14.5 | > 55.4 µM | 32.6 µM | 6.47 µM | 4.46 µM |  |  |  |  | 
9 | CC(=O)O[C@@H]1[C@@H](C)[C@]2(CC(c3ccoc3)OC2O)C2CCC3O[C@]3(C)[C@]2(C)[C@@H]1OC(C)=O (stereo not given in full) | > 100 µM | 63.1 µM | > 100 | > 100 µM | > 100 µM | > 100 µM | > 100 µM | 69.7 | > 100 µM | > 100 µM | > 100 | 81.4 µM | > 100 µM | > 100 µM | > 100 µM |  |  |  |  | 
10 | CC(=O)c1c2c(cc3c1CC1(C3)Cc3ccc4c(c3C1=O)CCC4)CCC2 (stereo not given) | > 100 µM | > 100 µM | > 100 | > 100 µM | 83.7 µM | 32.8 µM | > 100 µM | 9.51 | > 100 µM | > 100 µM | > 100 | > 100 µM | > 100 µM | > 100 µM | > 100 µM |  |  |  |  | 
11 | O=C(Nc1sccc1S(=O)(=O)c1ccc(Cl)cc1)c1ccc(Cl)cc1Cl | > 100 µM | > 100 µM | > 100 | > 100 µM | > 100 µM | > 100 µM | > 100 µM | > 100 | > 100 µM | > 100 µM | > 100 | > 100 µM | > 100 µM | > 100 µM | > 100 µM |  |  |  |  | 
